Source: PubChem BioAssay (NCI)
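Where inhibition never reached the appropriate level, the endpoint shown equals the highest concentration tested. Otherwise, values were interpolated linearly from a five-concentration, 48-hour dose response in 96-well plates. The concentration for full growth arrest is given as TGI.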

What was measured:
MALME-3M melanoma = assay: NCI anticancer screen, dose series, 48 h
M14 melanoma = assay: NCI anticancer screen, dose series, 48 h

Molecule `COC(=O)c1nc(-c2ccc3c(n2)C(=O)C(N)=C(OC)C3=O)c(N)c(-c2ccc(OC)c(OC)c2O)c1C` has a TGI (MALME-3M melanoma) of 1.74 µM.
`O=C1c2ccccc2C(=O)c2c1ccc1c2N=C(c2ccc(F)cc2)CC(c2ccc(Cl)c(Cl)c2)N1` (configuration not stated) showed a TGI (M14 melanoma) of 37.7 µM.
